The target of the assay is T1, SAMHD1 (Homo sapiens, UniProt Q9Y3Z3).
T1 construct: wt-SAMHD1(1–626)
T1 sequence (Q9Y3Z3 whole entry): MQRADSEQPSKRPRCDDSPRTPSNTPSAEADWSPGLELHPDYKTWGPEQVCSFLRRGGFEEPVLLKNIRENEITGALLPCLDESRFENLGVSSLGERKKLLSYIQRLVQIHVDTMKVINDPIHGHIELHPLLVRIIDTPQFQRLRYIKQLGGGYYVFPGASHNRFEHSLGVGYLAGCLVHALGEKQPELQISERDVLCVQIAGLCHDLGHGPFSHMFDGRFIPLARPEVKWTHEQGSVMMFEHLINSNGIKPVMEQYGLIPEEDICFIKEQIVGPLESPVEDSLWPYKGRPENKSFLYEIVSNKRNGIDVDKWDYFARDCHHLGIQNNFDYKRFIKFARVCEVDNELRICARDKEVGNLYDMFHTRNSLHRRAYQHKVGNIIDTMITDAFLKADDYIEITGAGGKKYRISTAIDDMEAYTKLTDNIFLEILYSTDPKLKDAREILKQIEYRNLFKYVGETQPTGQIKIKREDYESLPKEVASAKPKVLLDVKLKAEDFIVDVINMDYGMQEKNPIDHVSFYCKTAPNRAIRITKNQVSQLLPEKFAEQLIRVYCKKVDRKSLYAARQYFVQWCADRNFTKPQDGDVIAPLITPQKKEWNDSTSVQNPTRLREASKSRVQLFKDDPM
The assay is described as follows: coupled enzyme assay (Ppx1/MDCC-PBP), competitive inhibition of TTP hydrolysis. The class given is biochemical.
The term Ki denotes a measure of affinity in units of concentration, obtained from inhibition or displacement. A low value points to higher affinity. In turn, `Cc1cn([C@H]2C[C@H](O)[C@@H](CO[P@](O)(=S)OP(=O)(O)OP(=O)(O)O)O2)c(=O)[nH]c1=O` [Sp-TTPαS] yielded a Ki of 46 ± 2 µM.

Take `Nc1ncnc2c1ncn2[C@H]1C[C@H](O)[C@@H](CO[P@](O)(=S)OP(=O)(O)OP(=O)(O)O)O1` [Sp-dATPαS]: the affinity corresponds to a Ki of 117 ± 7 µM. This Ki is about 2.5-fold higher than that of the compound before.

Compound `Nc1ccn([C@H]2C[C@H](O)[C@@H](CO[P@](O)(=S)OP(=O)(O)OP(=O)(O)O)O2)c(=O)n1` [Sp-dCTPαS] registered an inhibition constant Ki of 6.3 ± 0.4 µM. Against the preceding compound, the Ki is about 19-fold lower.

The compound `Nc1nc2c(ncn2[C@H]2C[C@H](O)[C@@H](CO[P@](O)(=S)OP(=O)(O)OP(=O)(O)O)O2)c(=O)[nH]1` [Sp-dGTPαS] registered a Ki of 0.82 ± 0.05 µM.

For the origin of these results see paper PMC8173608, “Probing the Catalytic Mechanism and Inhibition of SAMHD1 Using the Differential Properties of Rp- and Sp-dNTPαS Diastereomers” (Biochemistry, 2021).
